# Ends that are not written are not given here. * marks the point of attachment. RhodamineB = CCN(CC)c1ccc2c(-c3ccccc3C(=O)*)c3ccc(=[N+](CC)CC)cc-3oc2c1
# System: NUGC‐4 cells
# Assay: Immunofluorescence binding of RhoB‐labeled peptides to fixed NUGC‐4 cells
# Assay type: cell-based, human
# Details: ImageJ quantification, Figure 4C
substance,measurement,value
"RhoB‐CG7C: CG7C peptide labeled with rhodamine B, negative control (RhodamineB-CGGGGGGGC; cysteine pairing not given here)",mean fluorescence intensity (MFI),small positive MFI

# Reference: paper PMC8486176 (Cancer Science, 2021)
